Measured values reported in patent EP0345906B1, “Unique elastase induced fibrinogen cleavage site antigens” (MERCK & CO. INC., priority 1988, dated 1989).

Columns and labels:
whole human blood = experiment: In vitro production of Aα 17-21 epitope containing peptide in human blood, other membrane perturbators with cytochalasin B; assay type: cell-based; details: 5 mg/ml cytochalasin B
Method: Other known membrane perturbators have been used to evaluate the in vitro production of the epitope containing cleavage peptide Aα 17-21 in human blood. Aliquots of freshly-drawn heparinized whole blood were incubated for 25 minutes at 37°C in the presence of either 5 mg/ml cytochalasin B and concentrations of phorbol-12-myristate-13-acetate (PMA) ranging up to 20 mM or in the presence of the combination of 5 mg/ml cytochalasin B and concentrations of n-formyl-L-norleucyl-L-leucyl-L-phenylalanine (FNLP) ranging up to 20 mM. Plasma was collected, prepared and assayed as described above.

human leukocyte elastase = biological target: T1, human leukocyte elastase (Homo sapiens, UniProt P08246); experiment: Elastase inhibitor activity assay: A23187-stimulated fibrinogen cleavage peptide production in whole human blood; assay type: cell-based; details: A23187 150 mM
T1 construct: exposure of whole human blood to calcium ionophore A23187 results in elastase cleavage product by allowing the release of neutrophil elastase; endogenous in cells; host or cells: leukocytes (neutrophils) in freshly drawn heparinized whole human blood, stimulated with A23187
T1 sequence (P08246 30-267): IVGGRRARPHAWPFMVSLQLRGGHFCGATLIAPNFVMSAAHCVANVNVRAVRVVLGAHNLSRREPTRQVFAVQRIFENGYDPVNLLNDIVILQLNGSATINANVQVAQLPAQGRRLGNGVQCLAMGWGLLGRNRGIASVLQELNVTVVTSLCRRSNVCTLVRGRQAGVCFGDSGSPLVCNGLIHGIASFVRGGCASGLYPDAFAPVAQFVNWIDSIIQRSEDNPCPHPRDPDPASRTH
Method: The above defined assay technology is used to monitor the activity of human elastase inhibitors on human leukocyte elastase activity in human and primate blood. […] Replicate aliquots of freshly-drawn heparinized whole human blood are prepared with concentrations of elastase inhibitor ranging up to about 300 mg/ml. Following a brief pre-incubation with the inhibitor, a membrane perturbator, such as calcium ionophore A23187, is added at a concentration of between about 75 mM and about 300 mM. Non-membrane perturbator controls containing blood and perturbator-only controls are included to measure the extent of uninhibited peptide generation. All assay samples are incubated at about 37°C for about 25 minutes. The plasma is then prepared and assayed for fibrinogen cleavage products as described above.
The effect of the elastase inhibitor 3-Acetoxymethyl-1a-methoxy-6-oxo-5-thia-1-azabicyclo[4.2.0]oct-2-ene-2-(2-(S)-carboxypyrrolidinecarboxamide)5,5-dioxide (compound 1) on the calcium ionophore A23187-induced fibrinogen cleavage peptide production was evaluated. Replicate 2 ml aliquots of freshly-drawn heparinized whole human blood were prepared with concentrations of compound 1 ranging up to […]. Following a brief pre-incubation of 5 minutes at 37°C, calcium ionophore A23187 was added to a final concentration of 150 mM. Non-ionophore containing blood and ionophore-only (no inhibitor) controls were included to measure the extent of uninhibited peptide generation. All aliquots were incubated at 37°C for 25 minutes, the plasma collected, processed and assayed for fibrinogen cleavage peptide as described above.

leukocyte elastase = experiment: Ionophore-induced peptide production in blood drawn from an elastase inhibitor-treated chimpanzee; assay type: in vivo
Method: In vivo inhibition of fibrinogen cleavage products following treatment of primates with an elastase inhibitor is evaluated. Blood or fluid samples are collected both before and after treatment with either an elastase inhibitor or saline. Each heparinized blood sample is divided into about 4 aliquots (about 1 ml) and processed as described above. Treatment of an animal with an elastase inhibitor causes a marked reduction in the amount of elastase cleavage product produced.
Two chimpanzees were anesthetized and fitted with venous catheters for the collection of blood. Blood was collected from each animal at intervals over a 60 minute period prior to the administration of the elastase inhibitor. All blood samples were collected in heparin. After the initial 60 minute period one animal was given an intravenous injection of 10 mg/kg of the elastase inhibitor compound 1 while the other animal received an equivalent volume of normal saline. Additional heparinized blood samples were taken from both animals at regular intervals over the next 60 minutes. Each freshly-drawn sample of whole heparinized chimpanzee blood was divided into 4 aliquots. Calcium ionophore A23187 was added at a final concentration of 150 mM to two of the aliquots and an equivalent volume of the DMSO vehicle was added to the other two. All blood samples were incubated at 37° for 25 minutes, plasma collected and assayed as described above.
Elastase inhibitor was infused into the treated animal at time 0.

Compound: n-formyl-L-norleucyl-L-leucyl-L-phenylalanine [FNLP]
- Aα 17-21 Epitope Containing Peptide Produced (picomoles/ml plasma) (whole human blood; FNLP 0.001 mMolar, 25 minutes at 37°C): 0.0 picomoles/ml plasma
- Aα 17-21 Epitope Containing Peptide Produced (picomoles/ml plasma) (whole human blood; FNLP 0.003 mMolar): 0.0 picomoles/ml plasma
- Aα 17-21 Epitope Containing Peptide Produced (picomoles/ml plasma) (whole human blood; FNLP 0.010 mMolar): 0.0 picomoles/ml plasma
- Aα 17-21 Epitope Containing Peptide Produced (picomoles/ml plasma) (whole human blood; FNLP 0.03 mMolar): 0.4 picomoles/ml plasma
- Aα 17-21 Epitope Containing Peptide Produced (picomoles/ml plasma) (whole human blood; FNLP 0.1 mMolar): 0.9 picomoles/ml plasma
- Aα 17-21 Epitope Containing Peptide Produced (picomoles/ml plasma) (whole human blood; FNLP 0.3 mMolar): 1.1 picomoles/ml plasma
- Aα 17-21 Epitope Containing Peptide Produced (picomoles/ml plasma) (whole human blood; FNLP 1.0 mMolar): 1.1 picomoles/ml plasma
- Aα 17-21 Epitope Containing Peptide Produced (picomoles/ml plasma) (whole human blood; FNLP 3.0 mMolar): 1.3 picomoles/ml plasma
- Aα 17-21 Epitope Containing Peptide Produced (picomoles/ml plasma) (whole human blood; FNLP 10.0 mMolar): 1.2 picomoles/ml plasma
- Aα 17-21 Epitope Containing Peptide Produced (picomoles/ml plasma) (whole human blood; FNLP 20.0 mMolar): 1.3 picomoles/ml plasma

Compound: COC1C(=O)N2C(C(=O)N3CCCC3C(=O)O)=C(COC(C)=O)CS(=O)(=O)C12 [compound 1, 3-Acetoxymethyl-1a-methoxy-6-oxo-5-thia-1-azabicyclo[4.2.0]oct-2-ene-2-(2-(S)-carboxypyrrolidinecarboxamide)5,5-dioxide]
- Cleavage Product Produced picomoles/ml (human leukocyte elastase; Elastase Inhibitor 1 mg/ml): 2.3 picomoles/ml
- inhibition at 1000 µg/mL (human leukocyte elastase; Elastase Inhibitor 1 mg/ml, read-out: Percent Inhibition): 4%
- Cleavage Product Produced picomoles/ml (human leukocyte elastase; Elastase Inhibitor 5 mg/ml): 1.6 picomoles/ml
- Cleavage Product Produced picomoles/ml (human leukocyte elastase; Elastase Inhibitor 10 mg/ml): 1.6 picomoles/ml
- Cleavage Product Produced picomoles/ml (human leukocyte elastase; Elastase Inhibitor 20 mg/ml): 1.5 picomoles/ml
- Cleavage Product Produced picomoles/ml (human leukocyte elastase; Elastase Inhibitor 30 mg/ml): 1.2 picomoles/ml
- Cleavage Product Produced picomoles/ml (human leukocyte elastase; Elastase Inhibitor 40 mg/ml): 0.8 picomoles/ml
- Cleavage Product Produced picomoles/ml (human leukocyte elastase; Elastase Inhibitor 80 mg/ml): 0.4 picomoles/ml
- A 1-21 Peptide Produced (picomoles/ml plasma) Treated (leukocyte elastase; Time 1.0 min after intravenous injection of 10 mg/kg, blood stimulated with A23187 150 mM): 1.10 picomoles/ml plasma
- A 1-21 Peptide Produced (picomoles/ml plasma) Treated (leukocyte elastase; Time 2.5 min after intravenous 10 mg/kg): 1.30 picomoles/ml plasma
- A 1-21 Peptide Produced (picomoles/ml plasma) Treated (leukocyte elastase; Time 5.0 min after intravenous 10 mg/kg): 1.60 picomoles/ml plasma
- A 1-21 Peptide Produced (picomoles/ml plasma) Treated (leukocyte elastase; Time 7.5 min after intravenous 10 mg/kg): 2.00 picomoles/ml plasma
- A 1-21 Peptide Produced (picomoles/ml plasma) Treated (leukocyte elastase; Time 10.0 min after intravenous 10 mg/kg): 1.80 picomoles/ml plasma
- A 1-21 Peptide Produced (picomoles/ml plasma) Treated (leukocyte elastase; Time 12.5 min after intravenous 10 mg/kg): 1.70 picomoles/ml plasma
- A 1-21 Peptide Produced (picomoles/ml plasma) Treated (leukocyte elastase; Time 15.0 min after intravenous 10 mg/kg): 0.98 picomoles/ml plasma
- A 1-21 Peptide Produced (picomoles/ml plasma) Treated (leukocyte elastase; Time 20.0 min after intravenous 10 mg/kg): 1.90 picomoles/ml plasma
- A 1-21 Peptide Produced (picomoles/ml plasma) Treated (leukocyte elastase; Time 30.0 min after intravenous 10 mg/kg): 2.20 picomoles/ml plasma
- A 1-21 Peptide Produced (picomoles/ml plasma) Treated (leukocyte elastase; Time 40.0 min after intravenous 10 mg/kg): 3.10 picomoles/ml plasma
- A 1-21 Peptide Produced (picomoles/ml plasma) Treated (leukocyte elastase; Time 50.0 min after intravenous 10 mg/kg): 2.60 picomoles/ml plasma
- A 1-21 Peptide Produced (picomoles/ml plasma) Treated (leukocyte elastase; Time 60.0 min after intravenous 10 mg/kg): 2.50 picomoles/ml plasma
- levels of the fibrinogen peptide produced in response to calcium ionophore A23187 after infusion (leukocyte elastase; treated chimpanzee, 10 mg/kg intravenous, in words): markedly lower levels

Compound: CCCCCCCCCCCCCC(=O)O[C@@H]1[C@@H](C)[C@@]2(O)[C@@H](C=C(CO)C[C@]3(O)C(=O)C(C)=C[C@@H]23)[C@@H]2C(C)(C)[C@]12OC(C)=O [PMA, phorbol-12-myristate-13-acetate]
- Aα 17-21 Epitope Containing Peptide Produced (picomoles/ml plasma) (whole human blood; PMA 0.003 mMolar, 25 minutes at 37°C): 0.0 picomoles/ml plasma
- Aα 17-21 Epitope Containing Peptide Produced (picomoles/ml plasma) (whole human blood; PMA 0.010 mMolar): 0.3 picomoles/ml plasma
- Aα 17-21 Epitope Containing Peptide Produced (picomoles/ml plasma) (whole human blood; PMA 0.03 mMolar): 0.3 picomoles/ml plasma
- Aα 17-21 Epitope Containing Peptide Produced (picomoles/ml plasma) (whole human blood; PMA 0.10 mMolar): 0.4 picomoles/ml plasma
- Aα 17-21 Epitope Containing Peptide Produced (picomoles/ml plasma) (whole human blood; PMA 0.30 mMolar): 0.9 picomoles/ml plasma
- Aα 17-21 Epitope Containing Peptide Produced (picomoles/ml plasma) (whole human blood; PMA 1.0 mMolar): 1.5 picomoles/ml plasma
- Aα 17-21 Epitope Containing Peptide Produced (picomoles/ml plasma) (whole human blood; PMA 3.0 mMolar): 2.6 picomoles/ml plasma
- Aα 17-21 Epitope Containing Peptide Produced (picomoles/ml plasma) (whole human blood; PMA 10.0 mMolar): 3.0 picomoles/ml plasma
- Aα 17-21 Epitope Containing Peptide Produced (picomoles/ml plasma) (whole human blood; PMA 20.0 mMolar): 3.7 picomoles/ml plasma
